Experiments:
Hep G2 cell line = experiment: solid tumor cell growth inhibition, MTT; format: cell-based, human
Method in brief: (§1)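 Cells grown in DMEM high glucose supplemented with 10% fetal bovine serum were plated at 4000 per well. After 24 h at 37° C in 5% CO2, varying compound concentrations were added for a further 72 h before MTT determination of viable cells.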

Jurkat cell line = experiment: leukemia cell growth inhibition, MTT; format: cell-based; conditions: Homo sapiens, 72 h
Method in brief: (§2)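 6000 cells per well in RPMI 1640 with 10% FBS were exposed to the oleanolic acid derivatives at a range of concentrations for 72 h at 37 °C, 5% CO2. Viable cells were measured by MTT, with untreated control inhibition set at 0%.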

Kasumi-1 cell line = experiment: leukemia cell growth inhibition, MTT; format: cell-based; conditions: Homo sapiens
Method in brief: as §2

H9 cell line = experiment: leukemia cell growth inhibition, MTT; format: cell-based; conditions: Homo sapiens
Method in brief: as §2

K562/adr cell line = experiment: leukemia cell growth inhibition, MTT; format: cell-based; conditions: Homo sapiens, 72 h
Method in brief: as §2

NB4 cell line = experiment: leukemia cell growth inhibition, MTT; format: cell-based; conditions: Homo sapiens, NB-4
Method in brief: as §2

PANC-1 cell line = experiment: solid tumor cell growth inhibition, MTT; format: cell-based; conditions: Homo sapiens
Method in brief: as §1

SK-OV-3 cell line = experiment: solid tumor cell growth inhibition, MTT; format: cell-based; conditions: Homo sapiens
Method in brief: as §1

MGC 803 cell line = experiment: solid tumor cell growth inhibition, MTT; format: cell-based; conditions: Homo sapiens
Method in brief: as §1

Hela cell line = experiment: solid tumor cell growth inhibition, MTT; format: cell-based; conditions: Homo sapiens, 72 h
Method in brief: as §1

PC-3 cell line = experiment: solid tumor cell growth inhibition, MTT; format: cell-based; conditions: Homo sapiens
Method in brief: as §1

Hep-2 cell line = experiment: solid tumor cell growth inhibition, MTT; format: cell-based; conditions: Homo sapiens
Method in brief: as §1

U87 MG cell line = experiment: solid tumor cell growth inhibition, MTT; format: cell-based; conditions: Homo sapiens, U-87 MG, 72 h
Method in brief: as §1

CNE cell line = experiment: solid tumor cell growth inhibition, MTT; format: cell-based; conditions: Homo sapiens, 72 h
Method in brief: as §1

CaES-17 cell line = experiment: solid tumor cell growth inhibition, MTT; format: cell-based; conditions: Homo sapiens, CaEs17
Method in brief: as §1

A549 cell line = experiment: solid tumor cell growth inhibition, MTT; format: cell-based; conditions: Homo sapiens
Method in brief: as §1

RKO cell line = experiment: solid tumor cell growth inhibition, MTT; format: cell-based; conditions: Homo sapiens, 72 h
Method in brief: as §1

Becap37 cell line = experiment: solid tumor cell growth inhibition, MTT; format: cell-based; conditions: Homo sapiens
Method in brief: as §1

MG-63 cell line = experiment: solid tumor cell growth inhibition, MTT; format: cell-based; conditions: Homo sapiens
Method in brief: as §1

RPMI8226 cell line = experiment: multiple myeloma cell growth inhibition, MTT; format: cell-based; conditions: Homo sapiens, RPMI-8226
Method in brief: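 RPMI8226 cells (6000 per well) in RPMI 1640 with 10% FBS were exposed to several concentrations of compound for 72 h at 37° C and 5% CO2. Viable cells were quantified by MTT, with inhibition set to 0% in untreated controls.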

[1] = 16 μg/mL compound, read-out: IR (cell proliferation inhibition rate)

IC50 (Hep G2 cell line; Homo sapiens, HepG2, Hep G2, 72 h): > 16 µg/mL
IC50 (Jurkat cell line): > 16 µg/mL
IC50 (Kasumi-1 cell line; Kasumi-1, 72 h): > 16 µg/mL
IC50 (H9 cell line; H9, 72 h): > 16 µg/mL
IC50 (K562/adr cell line; K562/Adr): > 16 µg/mL
IC50 (NB4 cell line; NB4, 72 h): > 16 µg/mL
IC50 (PANC-1 cell line; PANC-1, 72 h): > 16 µg/mL
IC50 (SK-OV-3 cell line; SK-OV-3, 72 h): > 16 µg/mL
IC50 (MGC 803 cell line; MGC 803, 72 h): > 16 µg/mL
IC50 (Hela cell line; HeLa): > 16 µg/mL
IC50 (PC-3 cell line; PC-3, 72 h): > 16 µg/mL
IC50 (Hep-2 cell line; HEp-2, 72 h): > 16 µg/mL
IC50 (U87 MG cell line): > 16 µg/mL
IC50 (CNE cell line): > 16 µg/mL
IC50 (CaES-17 cell line; CaES-17, 72 h): > 16 µg/mL
IC50 (A549 cell line; A549, 72 h): > 16 µg/mL
IC50 (RKO cell line): > 16 µg/mL
IC50 (Becap37 cell line; Becap37, 72 h): > 16 µg/mL
IC50 (MG-63 cell line; MG-63, 72 h): > 16 µg/mL
IC50 (RPMI8226 cell line; RPMI8226, 72 h): > 16 µg/mL
SMILES: CC1(C)CC[C@]2(C(=O)O)CC[C@]3(C)C(=CC[C@@H]4[C@@]5(C)CC[C@H](O)C(C)(C)[C@@H]5CC[C@]43C)[C@@H]2C1 [OA, Oleanolic acid]
proliferation inhibition effect (in words) (Hep G2 cell line; Hep G2): does not exhibit obvious proliferation inhibition effect
inhibition at 16 µg/mL (Hep G2 cell line; Homo sapiens, HepG2, 72 h, Hep G2, 16 μg/mL compound, 72 h, read-out: IR (cell proliferation inhibition rate)): -18.5%
inhibition at 16 µg/mL (Jurkat cell line; [1]): 9.4%
inhibition at 16 µg/mL (Kasumi-1 cell line; Kasumi-1, 16 μg/mL compound, 72 h, read-out: IR (cell proliferation inhibition rate)): 17.2%
inhibition at 16 µg/mL (H9 cell line; H9, 16 μg/mL compound, 72 h, read-out: IR (cell proliferation inhibition rate)): 22.8%
inhibition at 16 µg/mL (K562/adr cell line; K562/adr, 16 μg/mL compound, read-out: IR (cell proliferation inhibition rate)): 26.5%
inhibition at 16 µg/mL (NB4 cell line; NB4, 16 μg/mL compound, 72 h, read-out: IR (cell proliferation inhibition rate)): 17.2%
inhibition at 16 µg/mL (PANC-1 cell line; PANC-1, 16 μg/mL compound, 72 h, read-out: IR (cell proliferation inhibition rate)): 8.5%
inhibition at 16 µg/mL (SK-OV-3 cell line; SK-OV-3, 16 μg/mL compound, 72 h, read-out: IR (cell proliferation inhibition rate)): 8.3%
inhibition at 16 µg/mL (MGC 803 cell line; MGC 803, 16 μg/mL compound, 72 h, read-out: IR (cell proliferation inhibition rate)): 19.7%
inhibition at 16 µg/mL (Hela cell line; Hela, 16 μg/mL compound, read-out: IR (cell proliferation inhibition rate)): 22.9%
inhibition at 16 µg/mL (PC-3 cell line; PC-3, 16 μg/mL compound, 72 h, read-out: IR (cell proliferation inhibition rate)): 29.1%
inhibition at 16 µg/mL (Hep-2 cell line; Hep-2, 16 μg/mL compound, 72 h, read-out: IR (cell proliferation inhibition rate)): 9.8%
inhibition at 16 µg/mL (U87 MG cell line; [1]): 21.8%
inhibition at 16 µg/mL (CNE cell line; [1]): 33.9%
inhibition at 16 µg/mL (CaES-17 cell line; CaES-17, 16 μg/mL compound, 72 h, read-out: IR (cell proliferation inhibition rate)): 27.4%
inhibition at 16 µg/mL (A549 cell line; A549, 16 μg/mL compound, 72 h, read-out: IR (cell proliferation inhibition rate)): 5%
inhibition at 16 µg/mL (RKO cell line; [1]): 14.3%
inhibition at 16 µg/mL (Becap37 cell line; Becap37, 16 μg/mL compound, 72 h, read-out: IR (cell proliferation inhibition rate)): 23.4%
inhibition at 16 µg/mL (MG-63 cell line; MG-63, 16 μg/mL compound, 72 h, read-out: IR (cell proliferation inhibition rate)): 29.2%
inhibition at 16 µg/mL (RPMI8226 cell line; RPMI8226, 16 μg/mL compound, 72 h, read-out: IR (cell proliferation inhibition rate)): 2.2%

From US9156801B2, “2-substituted oleanolic acid derivative, method preparing for same, and application thereof” (HANGZHOU BENSHENG PHARMACEUTICAL CO., LTD., priority 2011, dated 2015)
